Measured values published in the NIST ThermoML archive (doi:10.1016/j.tca.2008.02.023).
Numbers after ± are expanded uncertainties.

Experiment: excess molar enthalpy (molar enthalpy of mixing); xn = mol fraction of the nth substance listed
Conditions: 101 kPa, Liquid, Calvet calorimetry

[Bi] [bismuth] + [Cu]
excess molar enthalpy (1073.2 K, x2 = 0.0427): 0.194 ± 0.00215 kcal/mol
excess molar enthalpy (1073.2 K, x2 = 0.0749): 0.337 ± 0.00359 kcal/mol
excess molar enthalpy (1073.2 K, x2 = 0.0819): 0.358 ± 0.00382 kcal/mol
excess molar enthalpy (1073.2 K, x2 = 0.1184): 0.493 ± 0.00526 kcal/mol
excess molar enthalpy (1073.2 K, x2 = 0.1417): 0.584 ± 0.00598 kcal/mol
excess molar enthalpy (1073.2 K, x2 = 0.1524): 0.603 ± 0.00621 kcal/mol
excess molar enthalpy (1073.2 K, x2 = 0.1852): 0.697 ± 0.00717 kcal/mol
excess molar enthalpy (1073.2 K, x2 = 0.2051): 0.763 ± 0.00789 kcal/mol
excess molar enthalpy (1073.2 K, x2 = 0.216): 0.771 ± 0.00789 kcal/mol
excess molar enthalpy (1073.2 K, x2 = 0.2446): 0.834 ± 0.0086 kcal/mol
excess molar enthalpy (1073.2 K, x2 = 0.2648): 0.887 ± 0.00908 kcal/mol
excess molar enthalpy (1073.2 K, x2 = 0.2722): 0.891 ± 0.00908 kcal/mol
excess molar enthalpy (1073.2 K, x2 = 0.2982): 0.937 ± 0.00956 kcal/mol
excess molar enthalpy (1073.2 K, x2 = 0.3165): 0.973 ± 0.01 kcal/mol
excess molar enthalpy (1073.2 K, x2 = 0.3228): 0.974 ± 0.01 kcal/mol
excess molar enthalpy (1073.2 K, x2 = 0.3461): 1 ± 0.0103 kcal/mol
excess molar enthalpy (1073.2 K, x2 = 0.3622): 1.02 ± 0.0105 kcal/mol
excess molar enthalpy (1073.2 K, x2 = 0.3683): 1.02 ± 0.0105 kcal/mol
excess molar enthalpy (1073.2 K, x2 = 0.3893): 1.04 ± 0.0108 kcal/mol
excess molar enthalpy (1073.2 K, x2 = 0.4032): 1.04 ± 0.0105 kcal/mol
excess molar enthalpy (1273.2 K, x2 = 0.1194): 0.496 ± 0.00526 kcal/mol
excess molar enthalpy (1273.2 K, x2 = 0.2184): 0.84 ± 0.0086 kcal/mol
excess molar enthalpy (1273.2 K, x2 = 0.2984): 1.04 ± 0.0105 kcal/mol
excess molar enthalpy (1273.2 K, x2 = 0.3648): 1.15 ± 0.0117 kcal/mol
excess molar enthalpy (1273.2 K, x2 = 0.4198): 1.21 ± 0.0124 kcal/mol
excess molar enthalpy (1273.2 K, x2 = 0.47): 1.23 ± 0.0127 kcal/mol
excess molar enthalpy (1273.2 K, x2 = 0.5122): 1.24 ± 0.0127 kcal/mol
excess molar enthalpy (1273.2 K, x2 = 0.5486): 1.22 ± 0.0124 kcal/mol
excess molar enthalpy (1273.2 K, x2 = 0.5801): 1.2 ± 0.0122 kcal/mol
excess molar enthalpy (1273.2 K, x2 = 0.6078): 1.18 ± 0.012 kcal/mol
excess molar enthalpy (1273.2 K, x2 = 0.632): 1.16 ± 0.0117 kcal/mol
excess molar enthalpy (1273.2 K, x2 = 0.6535): 1.13 ± 0.0115 kcal/mol
excess molar enthalpy (1273.2 K, x2 = 0.673): 1.1 ± 0.0112 kcal/mol
excess molar enthalpy (1273.2 K, x2 = 0.6904): 1.07 ± 0.011 kcal/mol
excess molar enthalpy (1273.2 K, x2 = 0.7077): 1.04 ± 0.0105 kcal/mol
excess molar enthalpy (1273.2 K, x2 = 0.724): 1.01 ± 0.0103 kcal/mol
excess molar enthalpy (1273.2 K, x2 = 0.7393): 0.985 ± 0.01 kcal/mol
excess molar enthalpy (1273.2 K, x2 = 0.7532): 0.956 ± 0.0098 kcal/mol
excess molar enthalpy (1273.2 K, x2 = 0.7659): 0.924 ± 0.00956 kcal/mol
excess molar enthalpy (1273.2 K, x2 = 0.7773): 0.897 ± 0.00932 kcal/mol
excess molar enthalpy (1273.2 K, x2 = 0.7884): 0.874 ± 0.00908 kcal/mol
excess molar enthalpy (1273.2 K, x2 = 0.7985): 0.859 ± 0.00884 kcal/mol
excess molar enthalpy (1273.2 K, x2 = 0.8078): 0.828 ± 0.0086 kcal/mol
excess molar enthalpy (1273.2 K, x2 = 0.8164): 0.802 ± 0.00837 kcal/mol
excess molar enthalpy (1273.2 K, x2 = 0.8244): 0.777 ± 0.00789 kcal/mol
